From US20120121540A1 (priority 2007, published 2012)

Assay: HCV replicon assay (luciferase reporter, ET cell line)
Format: cell-based
Conditions: Hepatitis C virus, HCV replicon luciferase activity in ET cells
Outline: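 EC50 and, via WST-1 cytotoxicity, TC50 were fitted with a Hill-coefficient equation to % inhibition across 10 two-fold dilutions. Compounds at 0.1 nM-[…] with 0.5% DMSO were applied 24 h post-seeding to replicon-bearing ET cells (luc-ubi-neo/NS3-5B, adaptive mutations). Firefly luciferase signal was measured after 48-72 h.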

In order of falling inhibition at 10 µM:
1. O=C(NCc1ccccc1)NCc1cn2cc(-c3ccoc3)cc(C(F)(F)F)c2n1 [Compound 391, 1-Benzyl-3-(6-furan-3-yl-8-trifluoromethyl-imidazo[1,2-a]pyridin-2-ylmethyl)-urea]  99.9%
2. O=C(c1nc2c(C(F)(F)F)cc(-c3ccoc3)cn2c1Cl)N1CC=C(c2ccccc2F)C1 [Compound 424, (3-Chloro-6-furan-3-yl-8-trifluoromethyl-imidazo[1,2-a]pyridin-2-yl)-[3-(2-fluoro-phenyl)-2,5-dihydro-pyrrol-1-yl]-methanone]  99.7%
3. O=C(c1nc2c(C(F)(F)F)cc(-c3cn[nH]c3)cn2c1Cl)N1CC=C(c2cccs2)C1 [Compound 443, [3-Chloro-6-(1H-pyrozol-4-yl)-8-(trifluoromethyl)imidazo[1,2-a]pyridine-2-yl][3-(thiophen-2-yl)-2,5-dihydro-1H-pyrrol-1-yl]methanone]  99.3%
4. O=C(c1nc2c(C(F)(F)F)cc(-c3cn[nH]c3)cn2c1Br)N1CC=C(c2ccc(F)cc2)C1 [Compound 438, [3-Bromo-6-(1H-pyrazol-4-yl)-8-trifluoromethyl-imidazo[1,2-a]pyridin-2-yl]-[3-(4-fluoro-phenyl)-2,5-dihydro-pyrrol-1-yl]-methanone]  97.8%
5. O=C(NCc1ccccn1)c1nc2c(C(F)(F)F)cc(-c3ccco3)cn2c1Cl [Compound 163, 3-Chloro-6-furan-2-yl-8-trifluoromethyl-imidazo[1,2-a]pyridine-2-carboxylic acid (pyridin-2-ylmethyl)-amide]  95.4%
6. O=C(c1nc2c(C(F)(F)F)cc(-c3ccoc3)cn2c1Cl)N1CC(NS(=O)(=O)c2cccc(F)c2)C1 [Compound 495, N-[1-(3-Chloro-6-furan-3-yl-8-trifluoromethyl-imidazo[1,2-a]pyridine-2-carbonyl)-azetidin-3-yl]-3-fluoro-benzenesulfonamide]  94.2%
7. O=C(Cc1c(C(=O)N2CCC(c3ccc(F)cc3)C2)nc2c(C(F)(F)F)cc(-c3ccoc3)cn12)NC1CC1 (stereo not shown) [Compound 242, N-Cyclopropyl-2-{2-[3-(4-fluoro-phenyl)-pyrrolidine-1-carbonyl]-6-furan-3-yl-8-trifluoromethyl-imidazo[1,2-a]pyridin-3-yl}-acetamide]  93%
8. O=C(NCc1cccs1)c1nc2c(C(F)(F)F)cc(-c3ccsc3)cn2c1-c1ccsc1 [Compound 200, 3,6-Di-thiophen-3-yl-8-trifluoromethyl-imidazo[1,2-a]pyridine-2-carboxylic acid (thiophen-2-ylmethyl)-amide]  91.6%
9. O=C(c1nc2c(C(F)(F)F)cc(-c3ccoc3)cn2c1Cl)N1CCN(c2cccnc2)CC1 [Compound 543, (3-Chloro-6-furan-3-yl-8-trifluoromethyl-imidazo[1,2-a]pyridin-2-yl)-(4-pyridin-3-yl-piperazin-1-yl)-methanone]  91.2%
10. O=C(NC(c1ccccc1)c1cccs1)c1nc2c(C(F)(F)F)cc(-c3ccoc3)cn2c1Cl (stereo not shown) [Compound 602, 3-Chloro-6-furan-3-yl-8-trifluoromethyl-imidazo[1,2-a]pyridine-2-carboxylic Acid (phenyl-thiophen-2-yl-methyl)-amide]  90.5%
11. O=C(NCCc1ccccc1F)c1nc2c(C(F)(F)F)cc(-c3ccoc3)cn2c1Cl [Compound 405, 3-Chloro-6-furan-3-yl-8-trifluoromethyl-imidazo[1,2-a]-pyridine-2-carboxylic acid [2-(2-fluoro-phenyl)-ethyl]-amide]  90%
12. CCc1c(C(=O)NCc2cccs2)nc2c(C(F)(F)F)cc(-c3ccco3)cn12 [Compound 194, 3-Ethyl-6-furan-2-yl-8-trifluoromethyl-imidazo[1,2-a]pyridine-2-carboxylic acid (thiophen-2-ylmethyl)-amide]  89.5%
13. O=C(c1nc2c(C(F)(F)F)cc(-c3ccco3)cn2c1Cl)N1CCC(c2ccc(F)cc2)C1 (stereo not shown) [Compound 316, (3-Chloro-6-furan-2-yl-8-trifluoromethyl-imidazo[1,2-a]pyridin-2-yl)-[3-(4-fluoro-phenyl)-pyrrolidin-1-yl]-methanone]  89.2%
14. COC(=O)c1cccc(C2CCN(C(=O)c3nc4c(C(F)(F)F)cc(-c5ccoc5)cn4c3Cl)C2)c1 (stereo not shown) [Compound 452, 3-(1-(3-Chloro-6-furan-3-yl-8-trifluoromethyl-imidazo[1,2-a]pyridine-2-carbonyl)-pyrrolidin-3-yl)-benzoic acid methyl ester]  87.6%
15. O=C(NCc1cccs1)c1nc2c(C(F)(F)F)cc(-c3ccccc3)nn2c1Cl [Compound 249, 3-Chloro-6-phenyl-8-trifluoromethyl-imidazo[1,2-b]pyridazine-2-carboxylic Acid(thiophen-2-ylmethyl)-amide]  81.4%
16. O=C(NCc1cccs1)c1nc2c(Cl)cc(-c3ccccc3)cn2c1Cl [Compound 370, 3,8-Dichloro-6-phenyl-imidazo[1,2-a]pyridine-2-carboxylic Acid (thiophen-2-ylmethyl)-amide]  80.4%
17. O=C(c1nc2c(C(F)(F)F)cc(-c3ccoc3)cn2c1Cl)N1CCN(c2cccc(F)c2)CC1 [Compound 531, (3-Chloro-6-furan-3-yl-8-trifluoromethyl-imidazo[1,2-a]pyridine-2-yl)-[4-(3-fluoro-phenyl)-piperazin-1-yl]-methanone]  79.3%
18. CC(C)(C)OC(=O)N[C@H]1CN(C(=O)c2nc3c(C(F)(F)F)cc(-c4ccoc4)cn3c2Cl)C[C@@H]1c1ccccc1 (stereo in doubt) [Compound 456, (-1-(3-Chloro-6-furan-3-yl-8-trifluoromethyl-imidazo[1,2-a]pyridine-2-carbonyl)-4-phenyl-pyrrolidin-3-yl)-carbamic acid tert-butyl ester]  79.3%
19. O=C(c1nc2c(C(F)(F)F)cc(-c3ccoc3)cn2c1Cl)N1CCC=C(c2cscn2)C1 [Compound 589, (3-Chloro-6-furan-3-yl-8-trifluoromethyl-imidazo[1,2-a]pyridin-2-yl)-(5-thiazol-4-yl-3,6-dihydro-2H-pyridin-1-yl)-methanone]  76%
20. O=C(NCc1cccs1)c1nc2c(C(F)(F)F)cc(-c3ccc(F)cc3)cn2c1Cl [Compound 178, 3-Chloro-6-(4-fluoro-phenyl)-8-trifluoromethyl-imidazo[1,2-a]pyridine-2-carboxylic acid (thiophen-2-ylmethyl)-amide]  75.2%
21. O=C(NCc1cccs1)c1nc2c(C(F)(F)F)cc(-c3cnn(Cc4ccccc4)c3)cn2c1Cl [Compound 285, 6-(1-Benzyl-1H-pyrazol-4-yl)-3-chloro-8-trifluoromethyl-imidazo[1,2-a]pyridine-2-carboxylic Acid (thiophen-2-ylmethyl)-amide]  71.8%
22. NC(=O)Cc1c(C(=O)N2CCC(c3ccc(F)cc3)C2)nc2c(C(F)(F)F)cc(-c3ccoc3)cn12 (stereo not shown) [Compound 239, 2-{2-[3-(4-Fluoro-phenyl)-pyrrolidine-1-carbonyl]-6-furan-3-yl-8-trifluoromethyl-imidazo[1,2-a]pyridin-3-yl}-acetamide]  53%
23. CN(C)CCOc1ccccc1CNC(=O)c1nc2c(C(F)(F)F)cc(-c3ccco3)cn2c1Cl [Compound 215, 3-Chloro-6-furan-2-yl-8-trifluoromethyl-imidazo[1,2-a]pyridine-2-carboxylic Acid 2-(2-dimethylamino-ethoxy)-benzylamide]  49%
24. CS(=O)(=O)N[C@@H]1CCN(C(=O)c2nc3c(C(F)(F)F)cc(-c4ccoc4)cn3c2Cl)C1 [Compound 480, N-[1-(3-Chloro-6-furan-3-yl-8-trifluoromethyl-imidazo[1,2-a]pyridine-2-carbonyl)-pyrrolidin-3-yl]-methanesulfonamide]  47.7%
25. O=C(NCc1ccc(Cl)s1)c1nn2c(C(F)(F)F)cc(-c3ccccc3)cc2c1Cl [Compound 123, 3-Chloro-5-phenyl-7-trifluoromethyl-pyrazolo[1,5-a]pyridine-2-carboxylic Acid (5-chloro-thiophen-2-ylmethyl)-amide]  46.1%
26. O=C(NCc1cccs1)c1[nH]c2c(Cl)cc(-c3ccccc3)cc2c1Cl [Compound 110, 3,7-Dichloro-5-phenyl-1H-indole-2-carboxylic acid (thiophen-2-ylmethyl)-amide]  35.9%
27. CCCCCc1nc(-c2cc(-c3ccoc3)cn3c(Cl)c(C(=O)NCc4cccs4)nc23)no1 [Compound 375, 3-Chloro-6-furan-3-yl-8-(5-pentyl-[1,2,4]oxadiazol-3-yl)-imidazo[1,2-a]pyridine-2-carboxylic Acid (thiophen-2-ylmethyl)-amide]  35.4%
28. O=C(Cc1c(C(=O)N2CCC(c3ccc(F)cc3)C2)nc2c(C(F)(F)F)cc(-c3ccoc3)cn12)NCc1ccccc1 (stereo not shown) [Compound 240, N-Benzyl-2-{2-[3-(4-fluoro-phenyl)-pyrrolidine-1-carbonyl]-6-furan-3-yl-8-trifluoromethyl-imidazo[1,2-a]pyridin-3-yl}-acetamide]  33.4%
29. C#Cc1cc(C(F)(F)F)c2nc(C(=O)NCc3cccs3)c(Cl)n2c1 [Compound 297, 3-Chloro-6-ethynyl-8-trifluoromethyl-imidazo[1,2-a]pyridine-2-carboxylic Acid (thiophen-2-ylmethyl)-amide]  29.3%
30. O=C(NCc1cccs1)c1cc2cc(-c3ccccc3)cc(N3CCOCC3)n2n1 [Compound 148, 7-Morpholin-4-yl-5-phenyl-pyrazolo[1,5-a]pyridine-2-carboxylic Acid (thiophen-2-ylmethyl)-amide]  27.7%
31. O=S(=O)(Cc1ccccc1)Nc1nc2c(C(F)(F)F)cc(-c3ccco3)cn2c1Cl [Compound 363, N-(3-Chloro-6-furan-2-yl-8-trifluoromethyl-imidazo[1,2-a]pyridin-2-yl)-C-phenyl-methanesulfonamide]  12.6%
